Assay results published in patent publication US9802927B2, “Oxadiazine compounds and methods of use thereof” (Denali Therapeutics, Inc., priority 2015, dated 2017).

System: Aβ42
Assay: In vitro cell screening assay in H4 cells expressing human APP751: Aβ42 by sandwich ELISA
Format: cell-based
Settings: compounds 0.003-10 μM, incubated overnight (16-18 h), sandwich ELISA of supernatant
Experimental: Human neuroglioma H4 cells were transfected with a pcDNA3.1 plasmid expressing human wild type APP751 cDNA and a stable cell line was generated using G418 selection. Cells were plated at 15,000 cells/well in Costar 96-well plates and placed at 37° C. and 5% CO2. Six hours after plating, cells were washed three times with Pro293™ chemically defined medium, followed by addition of compounds (0.003-10 μM, final DMSO concentration of 0.33%). Plates were incubated overnight (16-18 h) and supernatant was removed for quantification of Aβ peptides by sandwich ELISA. Cytotoxicity was evaluated using Cell-Titer 96W AQueous One Solution Cell Proliferation Assay according to the manufacturer's protocol.
Aβ peptide levels were quantified by sandwich ELISA. 96-well plates were coated with C-terminal specific Aβ antibodies recognizing either Aβ37, Aβ38, Aβ40, Aβ42, Aβ43 or a N-terminal specific Aβ antibody to detect Aβ 1-x. Plates were then blocked overnight at 4° C. with 1% bovine serum albumin (BSA) in PBS-T. Plates were washed and 100 μl of cultured cell supernatant or synthetic Aβ peptide standards and a detection antibody (4G8-HRP) were applied to the blocked plate and incubated overnight at 4° C. The next day, wells were washed before the addition of detection substrate (TMB peroxidase). Plates were then read for absorbance at 450 nm on a Molecular Devices SpectraMax M5e Microplate Reader.
Compound-treated samples were normalized to samples treated with DMSO alone (no inhibition) and to samples treated with DAPT. EC50 values were calculated from values reported as percent of DMSO controls using nonlinear regression, based on a sigmoidal dose response (variable slope) model. GraphPAD software from Prism used for calculation.

Work on `COc1nc(C2=NOCC(c3ccc(Cl)c(C(F)F)c3)N2)ccc1-n1cnc(C)c1` (single isomer, unassigned; (+)) [Example 270B, (+)-5-(4-chloro-3-(difluoromethyl)phenyl)-3-(6-methoxy-5-(4-methyl-1H-imidazol-1-yl)pyridin-2-yl)-5,6-dihydro-4H-1,2,4-oxadiazine] yielded an EC50 of 21.4 nM.
With `COc1nc(C2=NOCC(c3ccc(Cl)c(C(F)(F)F)c3)N2)ccc1-n1cnc(C)c1` (single isomer, unassigned) [Example 253A, 5-(4-chloro-3-(trifluoromethyl)phenyl)-3-(6-methoxy-5-(4-methyl-1H-imidazol-1-yl)pyridin-2-yl)-5,6-dihydro-4H-1,2,4-oxadiazine] the EC50 was 654 nM.
In the case of `COc1nc(C2=NOCC(c3cc(F)cc(F)c3)N2)ccc1-n1cnc(C)c1` (single isomer, unassigned; (-)) [Example 81A, (−)-5-(3,5-difluorophenyl)-3-(6-methoxy-5-(4-methyl-1H-imidazol-1-yl)pyridin-2-yl)-5,6-dihydro-4H-1,2,4-oxadiazine], the EC50 is reported as over 3000 nM.
`COc1nc(C2=NOCC(c3cccc(Cl)c3)N2)ccc1-n1cnc(C)c1` (single isomer, unassigned; (+)) [Example 244B, (+)-5-(3-chlorophenyl)-3-(6-methoxy-5-(4-methyl-1H-imidazol-1-yl)pyridin-2-yl)-5,6-dihydro-4H-1,2,4-oxadiazine] gave an EC50 of 26.3 nM.
Work on `COc1nc(C2=NOCC(c3cn(C)c4cc(F)c(C(F)(F)F)cc34)N2)ccc1-n1cnc(C)c1` (single isomer, unassigned; (-)) [Example 104A, (−)-5-(6-fluoro-1-methyl-5-(trifluoromethyl)-1H-indol-3-yl)-3-(6-methoxy-5-(4-methyl-1H-imidazol-1-yl)pyridin-2-yl)-5,6-dihydro-4H-1,2,4-oxadiazine] yielded an EC50 of 167 nM.
For `COc1nc(C2=NOCC(c3cc4cccc(C)c4o3)N2)ccc1-n1cnc(C)c1` (single isomer, unassigned) [Example 7B, 3-(6-Methoxy-5-(4-methyl-1H-imidazol-1-yl)pyridin-2-yl)-5-(7-methylbenzofuran-2-yl)-5,6-dihydro-4H-1,2,4-oxadiazine], the EC50 was 23.3 nM.
In the case of `COc1cc2c(cc1Cl)c(C1CON=C(c3ccc(-n4cnc(C)c4)c(OC)n3)N1)cn2C` (single isomer, unassigned; (+)) [Example 255B, (+)-5-(5-chloro-6-methoxy-1-methyl-1H-indol-3-yl)-3-(6-methoxy-5-(4-methyl-1H-imidazol-1-yl)pyridin-2-yl)-5,6-dihydro-4H-1,2,4-oxadiazine], the EC50 is reported as 9 nM.
For `COc1nc(C2=NOCC(c3ccc4ncsc4c3)N2)ccc1-n1cnc(C)c1` (single isomer, unassigned; (+)) [Example 183B, (+)-5-(benzo [d]thiazol-6-yl)-3-(6-methoxy-5-(4-methyl-1H-imidazol-1-yl)pyridin-2-yl)-5,6-dihydro-4H-1,2,4-oxadiazine], the EC50 was 260 nM.
With `COc1nc(C2=NOCC(c3cn(C)c4ccccc34)N2C)ccc1-n1cnc(C)c1` (single isomer, unassigned; (-)) [Example 200B, (−)-3-(6-methoxy-5-(4-methyl-1H-imidazol-1-yl)pyridin-2-yl)-4-methyl-5-(1-methyl-1H-indol-3-yl)-5,6-dihydro-4H-1,2,4-oxadiazine] the EC50 was 1290 nM.
`COc1nc(C2=NOCC(c3ccc(C(F)(F)F)cc3)N2)ccc1-n1cnc(C)c1` (single isomer, unassigned; (+)) [Example 59B, (+)-3-(6-methoxy-5-(4-methyl-1H-imidazol-1-yl)pyridin-2-yl)-5-(4-(trifluoromethyl)phenyl)-5,6-dihydro-4H-1,2,4-oxadiazine] gave an EC50 of 33.7 nM.
`COc1nc(C2=NOCC(c3ccc(Cl)c(C(F)(F)F)c3)N2)ccc1-n1cnc(C)c1` (single isomer, unassigned) [Example 253B, 5-(4-chloro-3-(trifluoromethyl)phenyl)-3-(6-methoxy-5-(4-methyl-1H-imidazol-1-yl)pyridin-2-yl)-5,6-dihydro-4H-1,2,4-oxadiazine] showed an EC50 of 8.4 nM.
For `COc1nc(C2=NOCC(c3oc4ccccc4c3C)N2)ccc1-n1cnc(C)c1` (single isomer, unassigned; (-)) [Example 16A, (−)-3-(6-methoxy-5-(4-methyl-1H-imidazol-1-yl)pyridin-2-yl)-5-(3-methylbenzofuran-2-yl)-5,6-dihydro-4H-1,2,4-oxadiazine], the EC50 was 508 nM.
For `COc1nc(C2=NOCC(c3ccc(F)c(C(F)(F)F)c3)N2)ccc1-n1cnc(C)c1` (single isomer, unassigned) [Example 44B, 5-(4-fluoro-3-(trifluoromethyl)phenyl)-3-(6-methoxy-5-(4-methyl-1H-imidazol-1-yl)pyridin-2-yl)-5,6-dihydro-4H-1,2,4-oxadiazine], the EC50 was 21.6 nM.
In the case of `COc1nc(C2=NOCC(c3cc(Cl)cc(Cl)c3)N2)ccc1-n1cnc(C)c1` (single isomer, unassigned; (-)) [Example 118A, (−)-5-(3,5-dichlorophenyl)-3-(6-methoxy-5-(4-methyl-1H-imidazol-1-yl)pyridin-2-yl)-5,6-dihydro-4H-1,2,4-oxadiazine], the EC50 is reported as 1510 nM.
`COc1nc(C2=NOCC(c3cc(Cl)cc(Cl)c3)N2)ccc1-n1cnc(C)c1` (single isomer, unassigned; (+)) [Example 118B, (+)-5-(3,5-dichlorophenyl)-3-(6-methoxy-5-(4-methyl-1H-imidazol-1-yl)pyridin-2-yl)-5,6-dihydro-4H-1,2,4-oxadiazine] gave an EC50 of 9.9 nM.
`COc1nc(C2=NOCC(c3cnc4ccc(Cl)cn34)N2)ccc1-n1cnc(C)c1` (single isomer, unassigned; (-)) [Example 269A, (−)-5-(6-chloroimidazo[1,2-a]pyridin-3-yl)-3-(6-methoxy-5-(4-methyl-1H-imidazol-1-yl)pyridin-2-yl)-5,6-dihydro-4H-1,2,4-oxadiazine] gave an EC50 of over 3000 nM.
`COc1nc(C2=NOCC(c3ccc(C(F)(F)F)c(Cl)c3)N2)ccc1-n1cnc(C)c1` (single isomer, unassigned; (+)) [Example 262B, (+)-5-(3-chloro-4-(trifluoromethyl)phenyl)-3-(6-methoxy-5-(4-methyl-1H-imidazol-1-yl)pyridin-2-yl)-5,6-dihydro-4H-1,2,4-oxadiazine] showed an EC50 of 10 nM.
In the case of `COc1nc(C2=NOCC(c3cn(C)c4ncc(Cl)cc34)N2)ccc1-n1cnc(C)c1` (single isomer, unassigned; (-)) [Example 264A, (−)-5-(5-chloro-1-methyl-1H-pyrrolo[2,3-b]pyridin-3-yl)-3-(6-methoxy-5-(4-methyl-1H-imidazol-1-yl)pyridin-2-yl)-5,6-dihydro-4H-1,2,4-oxadiazine], the EC50 is reported as 321 nM.
`COc1nc(C2=NOCC(c3cc(F)c(Cl)c(F)c3)N2)ccc1-n1cnc(C)c1` (single isomer, unassigned; (+)) [Example 267B, (+)-5-(4-chloro-3,5-difluorophenyl)-3-(6-methoxy-5-(4-methyl-1H-imidazol-1-yl)pyridin-2-yl)-5,6-dihydro-4H-1,2,4-oxadiazine] showed an EC50 of 24.9 nM.
In the case of `COc1nc(C2=NOCC(c3ccc(S(C)(=O)=O)cc3)N2)ccc1-n1cnc(C)c1` (single isomer, unassigned; (+)) [Example 217B, (+)-3-(6-methoxy-5-(4-methyl-1H-imidazol-1-yl)pyridin-2-yl)-5-(4-(methylsulfonyl)phenyl)-5,6-dihydro-4H-1,2,4-oxadiazine], the EC50 is reported as 2050 nM.
Molecule `COc1nc(C2=NOCC(CC3CC3)N2)ccc1-n1cnc(C)c1` (single isomer, unassigned) [Example 159A, 5-(cyclopropylmethyl)-3-(6-methoxy-5-(4-methyl-1H-imidazol-1-yl)pyridin-2-yl)-5,6-dihydro-4H-1,2,4-oxadiazine] has an EC50 of over 3000 nM.
Work on `COc1nc(C2=NOCC(c3cc4c(Cl)cccc4o3)N2)ccc1-n1cnc(C)c1` (single isomer, unassigned; (+)) [Example 96B, (+)-5-(4-chlorobenzofuran-2-yl)-3-(6-methoxy-5-(4-methyl-1H-imidazol-1-yl)pyridin-2-yl)-5,6-dihydro-4H-1,2,4-oxadiazine] yielded an EC50 of 12.7 nM.
`COc1nc(C2=NOCC(c3cc4ccc(C(F)(F)F)cc4o3)N2)ccc1-n1cnc(C)c1` (single isomer, unassigned; (-)) [Example 260A, (−)-3-(6-methoxy-5-(4-methyl-1H-imidazol-1-yl)pyridin-2-yl)-5-(6-(trifluoromethyl)benzofuran-2-yl)-5,6-dihydro-4H-1,2,4-oxadiazine] showed an EC50 of 2320 nM.
With `COc1nc(C2=NOCC(c3ccc(C(F)(F)F)cc3)N2)ccc1-n1cnc(C)c1` (single isomer, unassigned; (-)) [Example 59A, (−)-3-(6-methoxy-5-(4-methyl-1H-imidazol-1-yl)pyridin-2-yl)-5-(4-(trifluoromethyl)phenyl)-5,6-dihydro-4H-1,2,4-oxadiazine] the EC50 was over 3000 nM.
Work on `COc1nc(C2=NOCC(c3ccc4ncccc4c3)N2)ccc1-n1cnc(C)c1` (single isomer, unassigned; (-)) [Example 224A, (−)-3-(6-methoxy-5-(4-methyl-1H-imidazol-1-yl)pyridin-2-yl)-5-(quinolin-6-yl)-5,6-dihydro-4H-1,2,4-oxadiazine] yielded an EC50 of over 3000 nM.
